Test results: BigSolDB 2.1

CCCCCCCC(=O)NCC(=O)O
Conditions	solubility (mole fraction)
in 2-butanone, 273.15 K	0.0123
in 2-butanone, 278.15 K	0.0153
in 2-butanone, 283.15 K	0.0199
in 2-butanone, 288.35 K	0.0266
in 2-butanone, 293.05 K	0.0304
in 2-butanone, 298.15 K	0.0379
in 2-butanone, 303.15 K	0.0457
in 2-butanone, 308.05 K	0.0561
in 2-butanone, 313.25 K	0.0667
in 2-butanone, 317.65 K	0.0806
in 2-butanone, 323.15 K	0.0951
in 2-pentanone, 273.15 K	0.00491
in 2-pentanone, 278.15 K	0.00666
in 2-pentanone, 283.15 K	0.00984
in 2-pentanone, 288.35 K	0.0148
in 2-pentanone, 293.05 K	0.0178
in 2-pentanone, 298.15 K	0.0244
in 2-pentanone, 303.15 K	0.032
in 2-pentanone, 308.05 K	0.0431
in 2-pentanone, 313.25 K	0.0552
in 2-pentanone, 317.65 K	0.0723
in 2-pentanone, 323.15 K	0.0915
in acetone, 273.15 K	0.0146
in acetone, 278.15 K	0.0189
in acetone, 283.15 K	0.0261
in acetone, 288.35 K	0.0369
in acetone, 293.05 K	0.0432
in acetone, 298.15 K	0.0562
in acetone, 303.15 K	0.0706
in acetone, 308.05 K	0.0905
in acetone, 313.25 K	0.111
in acetone, 317.65 K	0.14
in acetone, 323.15 K	0.171
in cyclohexanone, 273.15 K	0.0112
in cyclohexanone, 278.15 K	0.0149
in cyclohexanone, 283.15 K	0.0214
in cyclohexanone, 288.35 K	0.0315
in cyclohexanone, 293.05 K	0.0378
in cyclohexanone, 298.15 K	0.0508
in cyclohexanone, 303.15 K	0.0656
in cyclohexanone, 308.05 K	0.0866
in cyclohexanone, 313.25 K	0.11
in cyclohexanone, 317.65 K	0.141
in cyclohexanone, 323.15 K	0.177
in cyclopentanone, 273.15 K	0.0144
in cyclopentanone, 278.15 K	0.019
in cyclopentanone, 283.15 K	0.0269
in cyclopentanone, 288.35 K	0.039
in cyclopentanone, 293.05 K	0.0464
in cyclopentanone, 298.15 K	0.0616
in cyclopentanone, 303.15 K	0.0789
in cyclopentanone, 308.05 K	0.103
in cyclopentanone, 313.25 K	0.129
in cyclopentanone, 317.65 K	0.164
in cyclopentanone, 323.15 K	0.203
in ethanol, 273.15 K	0.0116
in ethanol, 278.15 K	0.0176
in ethanol, 283.15 K	0.0266
in ethanol, 288.35 K	0.0401
in ethanol, 293.05 K	0.0575
in ethanol, 298.15 K	0.0833
in ethanol, 303.15 K	0.119
in ethanol, 308.05 K	0.168
in ethanol, 313.25 K	0.237
in ethanol, 317.65 K	0.314
in ethanol, 323.15 K	0.447
in ethyl acetate, 273.15 K	0.00218
in ethyl acetate, 278.15 K	0.00301
in ethyl acetate, 283.15 K	0.00455
in ethyl acetate, 288.35 K	0.00705
in ethyl acetate, 293.05 K	0.00866
in ethyl acetate, 298.15 K	0.0121
in ethyl acetate, 303.15 K	0.0162
in ethyl acetate, 308.05 K	0.0223
in ethyl acetate, 313.25 K	0.029
in ethyl acetate, 317.65 K	0.0389
in ethyl acetate, 323.15 K	0.0502
in ethyl formate, 273.15 K	0.0016
in ethyl formate, 278.15 K	0.00226
in ethyl formate, 283.15 K	0.00348
in ethyl formate, 288.35 K	0.00555
in ethyl formate, 293.05 K	0.00688
in ethyl formate, 298.15 K	0.00981
in ethyl formate, 303.15 K	0.0133
in ethyl formate, 308.05 K	0.0186
in ethyl formate, 313.25 K	0.0247
in ethyl formate, 317.65 K	0.0336
in ethyl formate, 323.15 K	0.0439
in isobutanol, 273.15 K	0.0204
in isobutanol, 278.15 K	0.0259
in isobutanol, 283.15 K	0.0327
in isobutanol, 288.35 K	0.0412
in isobutanol, 293.05 K	0.0503
in isobutanol, 298.15 K	0.0622
in isobutanol, 303.15 K	0.0762
in isobutanol, 308.05 K	0.0919
in isobutanol, 313.25 K	0.112
in isobutanol, 317.65 K	0.131
in isobutanol, 323.15 K	0.159
in isopentanol, 273.15 K	0.0276
in isopentanol, 278.15 K	0.0347
in isopentanol, 283.15 K	0.0434
in isopentanol, 288.35 K	0.0543
in isopentanol, 293.05 K	0.0657
in isopentanol, 298.15 K	0.0805
in isopentanol, 303.15 K	0.0978
in isopentanol, 308.05 K	0.117
in isopentanol, 313.25 K	0.142
in isopentanol, 317.65 K	0.166
in isopentanol, 323.15 K	0.2
in isopropanol, 273.15 K	0.0153
in isopropanol, 278.15 K	0.0193
in isopropanol, 283.15 K	0.0239
in isopropanol, 288.35 K	0.0298
in isopropanol, 293.05 K	0.0362
in isopropanol, 298.15 K	0.0441
in isopropanol, 303.15 K	0.0533
in isopropanol, 308.05 K	0.064
in isopropanol, 313.25 K	0.0769
in isopropanol, 317.65 K	0.0895
in isopropanol, 323.15 K	0.108
in methanol, 273.15 K	0.0347
in methanol, 278.15 K	0.0478
in methanol, 283.15 K	0.0653
in methanol, 288.35 K	0.0891
in methanol, 293.05 K	0.117
in methanol, 298.15 K	0.156
in methanol, 303.15 K	0.204
in methanol, 308.05 K	0.263
in methanol, 313.25 K	0.343
in methanol, 317.65 K	0.425
in methanol, 323.15 K	0.555
in methyl acetate, 273.15 K	0.00203
in methyl acetate, 278.15 K	0.00288
in methyl acetate, 283.15 K	0.00448
in methyl acetate, 288.35 K	0.00718
in methyl acetate, 293.05 K	0.00895
in methyl acetate, 298.15 K	0.0128
in methyl acetate, 303.15 K	0.0174
in methyl acetate, 308.05 K	0.0245
in methyl acetate, 313.25 K	0.0327
in methyl acetate, 317.65 K	0.0444
in methyl acetate, 323.15 K	0.0586
in n-butanol, 273.15 K	0.0228
in n-butanol, 278.15 K	0.0313
in n-butanol, 283.15 K	0.0425
in n-butanol, 288.35 K	0.0577
in n-butanol, 293.05 K	0.0755
in n-butanol, 298.15 K	0.0993
in n-butanol, 303.15 K	0.13
in n-butanol, 308.05 K	0.167
in n-butanol, 313.25 K	0.217
in n-butanol, 317.65 K	0.268
in n-butanol, 323.15 K	0.347
in n-pentanol, 273.15 K	0.0226
in n-pentanol, 278.15 K	0.0308
in n-pentanol, 283.15 K	0.0413
in n-pentanol, 288.35 K	0.0559
in n-pentanol, 293.05 K	0.0724
in n-pentanol, 298.15 K	0.095
in n-pentanol, 303.15 K	0.123
in n-pentanol, 308.05 K	0.157
in n-pentanol, 313.25 K	0.202
in n-pentanol, 317.65 K	0.249
in n-pentanol, 323.15 K	0.32
in n-propanol, 273.15 K	0.0174
in n-propanol, 278.15 K	0.0254
in n-propanol, 283.15 K	0.0363
in n-propanol, 288.35 K	0.0522
in n-propanol, 293.05 K	0.0715
in n-propanol, 298.15 K	0.1
in n-propanol, 303.15 K	0.137
in n-propanol, 308.05 K	0.185
in n-propanol, 313.25 K	0.251
in n-propanol, 317.65 K	0.323
in n-propanol, 323.15 K	0.439
